Measurements published in publication PMC9616412, “Nebulized fusion inhibitory peptide protects cynomolgus macaques from measles virus infection” (Nature Communications, 2022).
“And” between values parts separate entries of the source, which are not always exact repeats. Equal values may be shown once.

Experiments:
[1] = Laser diffraction and output measurement of the nebulized aerosol; assay type: physicochemical; details: HRC4 4 mg/ml, 3 ml, prototype mesh nebulizer, laser diffraction; mean +/- SD of four devices
Experimental: The aerodynamic performances of the aerosols generated by the prototype mesh nebulizer were determined by laser diffraction using a Spraytec™ instrument (Malvern Instruments Ltd., Malvern, UK) and the Spraytec inhalation cell (Malvern Instruments Ltd., Malvern, UK) connected to an aspiration carried out by a vacuum pump set to 30-50 L/min[70]. The prototype mesh nebulizers (n=4) were loaded with 3 ml of either NaCl 0.9% or the HCR4 peptide (4 mg/ml, dissolved as described above) and then connected to the inhalation cell. Nebulization duration was notified at the end of the complete aerosolization of the loaded 3 ml. Diffraction data and volume distribution were automatically registered by the Spraytec software.
The output of nebulizer was determined by the difference between the weight of the nebulizer before and after nebulization and was expressed in percentage of the loaded volume. The output rate of each nebulizer (in ml/min) was then determined as the ratio between the output and the nebulization duration. At least, the residual volume corresponding to the volume of liquid remaining in the reservoir at the end of the nebulization was also determined by weighting the nebulizer before loading it and after nebulization.

[2] = ELISA of anti-HRC4 antibodies (IgG, IgA, IgM) in serum; assay type: in vivo, cynomolgus macaques; details: for anti-HRC4 antibodies (IgG, IgA and IgM), ELISA, D28 minus day 0: serum 1:20, rep1-rep3
Experimental: (§1) Briefly, HRC4 was coated in carbonate buffer pH 9.2 overnight (1 μg /well). […] Rabbit anti-HRC4 Ab followed with anti-rabbit Ab coupled to HRP was used as a positive control. Evaluation of total IgE in the serum was performed using the monkey IgE kit (Ozyme) following the manufacturer’s recommendation.

[3] = ELISA of HRC4-specific IgE in serum; assay type: in vivo, cynomolgus macaques; details: up to 4 weeks after nebulization
Experimental: as §1

[4] = Lung histopathology (HE, HES; eosinophil infiltration); assay type: in vivo, cynomolgus macaques; details: for Lung eosinophil infiltration: HES staining
Experimental: Lung tissue samples were collected at necropsy and fixed by immersion in 10% neutral buffered formalin (Sigma) for a minimum of 14 days. The tissue samples were trimmed, processed and embedded in paraffin. 4 to 5 µm-thick sections were cut. For histopathology evaluation, slides were routinely stained with hematoxylin-eosin (HE) or with hematoxylin-eosin-saffron (HES). For the study of the pulmonary infiltration by eosinophils, the histopathologic evaluation was performed by a board-certified veterinary pathologist.
For hematoxylin-eosin staining, formalin-fixed tissues were processed and embedded in paraffin and tissue sections were then deparaffinized, rehydrated, rinsed, and placed in PBS before harrys hematoxylin staining (Diapath, diluted 1/3), washed with PBS and stained with eosin 1% (Sigma-Aldrich). Slide were washed with water dehydrated and mounted with DPX mounting medium (Sigma-Aldrich). For the study of eosinophils infiltration, slides were stained in addition with saffron and analysed by a board-certified veterinary pathologist.

[5] = Biochemical parameters in plasma after nebulization; assay type: in vivo, cynomolgus macaques; details: noninfected animals, days 1, 2, 3, 6, 28 after nebulization
Experimental: (§2) Biochemical parameters in the plasma and cellular composition of the blood were evaluated immediately before treatment and 1, 2, 3, 6, and 28 days after nebulization of either saline or HRC4 peptide in non-infected and MeV-infected NHP, to search for early and late toxic effects of the aerosol delivery (Fig. 4). […] In both control and peptide group, few animals experienced transient increase of creatine kinase above physiological values[40] (Fig. 4a), which can be linked to intramuscular anesthesia, as described previously.

[6] = Haematological parameters after nebulization; assay type: in vivo, cynomolgus macaques; details: noninfected animals, days 1, 2, 3, 6, 28 after nebulization
Experimental: as §2

[7] = Flow cytometry of major PBMC populations in blood; assay type: in vivo, cynomolgus macaques; details: compared to values before the nebulization
MeV IC323-eGFP [8] = test: Haematological parameters during MeV infection; assay type: in vivo, Cynomolgus monkeys (Macaca fascicularis)
Experimental: Supplementary figure S6. Evolution of the hematological parameters during the MeV infection. Major PBMC populations in blood of cynomolgus macaques were followed using Sysmex XT2000i Vet automatic analyzer, after nebulization of either 3 ml of 0.9% NaCl (C) or […] of HRC4 peptide (P) and MeV infection. Transient lymphopenia is observed in the absence of peptide protection.
Lymphocytes concentration (K/uL)
Monocytes concentration (K/uL)

[9] = ELISA of total IgE in serum; assay type: in vivo, cynomolgus macaques; design: unit not given here; details: Peptide group
Experimental: as §1

MeV IC323-eGFP [10] = test: Viremia: GFP+ PBMC by flow cytometry
Experimental: (§3) Whole blood was collected on EDTA, then transferred into BD vacutainer CPT tubes (after removal of anticoagulant solution from CPT tubes) and spun at 2500 g for 20 min. The PBMCs were collected and one-tenth were used to isolate RNA. […] Cells were acquired on a MACSQuant®10 flow cytometer (Miltenyi) and analyzed by FlowJo10.8 (Becton Dickinson) and Kaluza 2.1 (Beckman Coulter).

MeV = test: Plaque reduction assay on Vero-hSLAM cells; details: fusion inhibition and plaque reduction in vitro before and after nebulization with mesh nebulizer
[11] = ELISA of HRC4 concentration in serum and urine
MeV IC323-eGFP [12] = test: ELISA of total MeV-specific immunoglobulin in serum; details: HRC4-treated animals P1 and P3
Experimental: Sera of MeV-infected NHPs were tested for the presence of anti-MeV antibodies by ELISA. Briefly, MeV nucleoprotein, produced as described previously[71] was coated onto 96-well ELISA plates overnight (1 μg /well). Plates were blocked using a mix of PBS 1X-Milk 5% for 30 min at room temperature. Serial dilutions (1:50 and then 1:3 serial dilutions until 1:2952450) were done in PBS 1X-Tween 0.05%-Milk and incubated 2 h at RT. […] Optical density was measured at 450 and 620 nm using an ELISA reader (Thermo Fisher) and the absorbance difference between 450 nm and 650 nm was determined and corrected for blank readings. The serum sample was considered positive when its value was higher than three times the average value obtained with the negative sera of the same dilution and the results were expressed as reciprocal value of the last serum dilution giving the measurable values.

MeV IC323-eGFP [13] = test: MeV infection of NHP: clinical signs and fluorescent rash
Experimental: Blood samples for hematology analyses were collected at days −1, 0, 1, 2, 3, 6, 9, 13, 16 and 28. Blood samples for flow cytometry analyses were collected at days −1, 3, 6, 9, 13, 16 and 28. Throat swabs were collected at days 0, 1, 2, 3, 6, 9, 13, 16 and 28, using cotton swabs. Oxygen saturation and heartbeat were monitored by a Radical-7® Pulse CO-Oximeter (Masimo) and breathing was monitored by a Dräger Primus anesthesia machine. Hematological parameters were measured on a Procyte DX (IDEXX) and biochemical parameters were evaluated on a Konelab 30 (Thermo Fisher). Development of fluorescent rash was followed using a FastGene Blue/Green LED Flashlight (Nippon genetics).

[14] = Clinical observation for adverse effects after nebulization; details: during the 28 days after peptide nebulization
MeV IC323-eGFP [15] = test: Class-unswitched and switched memory B cells by flow cytometry; details: HRC4-treated animals P1 and P3
Experimental: as §3

CC[C@H](C)[C@H](NC(=O)[C@H](C)NC(=O)[C@H](CC(N)=O)NC(=O)CNC(=O)[C@H](CC(C)C)NC(=O)[C@H](CC(N)=O)NC(=O)[C@@H](NC(=O)CNC(=O)[C@@H](NC(=O)[C@H](CC(=O)O)NC(=O)[C@H](CC(C)C)NC(=O)[C@H](CCCNC(=N)N)NC(=O)[C@H](CCC(=O)O)NC(=O)[C@H](CC(C)C)NC(=O)[C@H](CO)NC(=O)[C@@H](NC(=O)[C@@H]1CCCN1C(=O)[C@@H]1CCCN1)[C@@H](C)CC)C(C)C)[C@@H](C)O)C(=O)N[C@@H](C)C(=O)N[C@@H](CCCCN)C(=O)N[C@@H](CC(C)C)C(=O)N[C@@H](CCC(=O)O)C(=O)N[C@@H](CC(=O)O)C(=O)N[C@@H](C)C(=O)N[C@@H](CCCCN)C(=O)N[C@@H](CCC(=O)O)C(=O)N[C@@H](CC(C)C)C(=O)N[C@@H](CC(C)C)C(=O)N[C@@H](CCC(=O)O)C(=O)N[C@@H](CO)C(=O)N[C@@H](CO)C(=O)N[C@@H](CC(=O)O)C(=O)N[C@@H](CCC(N)=O)C(=O)N[C@H](C(=O)N[C@@H](CC(C)C)C(=O)N[C@@H](CCCNC(=N)N)C(=O)NCC(=O)N[C@@H](CO)C(=O)NCC(=O)N[C@@H](CO)C(=O)NCC(=O)N[C@@H](CSC1CC(=O)N(CCCC(=O)NCCOCCOCCOCCOCCC(=O)NCCN(CCNC(=O)CCOCCOCCOCCOCCNC(=O)CCCN2C(=O)CC(SC[C@H](NC(=O)CNC(=O)[C@H](CO)NC(=O)CNC(=O)[C@H](CO)NC(=O)CNC(=O)[C@H](CCCNC(=N)N)NC(=O)[C@H](CC(C)C)NC(=O)[C@@H](NC(=O)[C@H](CCC(N)=O)NC(=O)[C@H](CC(=O)O)NC(=O)[C@H](CO)NC(=O)[C@H](CO)NC(=O)[C@H](CCC(=O)O)NC(=O)[C@H](CC(C)C)NC(=O)[C@H](CC(C)C)NC(=O)[C@H](CCC(=O)O)NC(=O)[C@H](CCCCN)NC(=O)[C@H](C)NC(=O)[C@H](CC(=O)O)NC(=O)[C@H](CCC(=O)O)NC(=O)[C@H](CC(C)C)NC(=O)[C@H](CCCCN)NC(=O)[C@H](C)NC(=O)[C@@H](NC(=O)[C@H](C)NC(=O)[C@H](CC(N)=O)NC(=O)CNC(=O)[C@H](CC(C)C)NC(=O)[C@H](CC(N)=O)NC(=O)[C@@H](NC(=O)CNC(=O)[C@@H](NC(=O)[C@H](CC(=O)O)NC(=O)[C@H](CC(C)C)NC(=O)[C@H](CCCNC(=N)N)NC(=O)[C@H](CCC(=O)O)NC(=O)[C@H](CC(C)C)NC(=O)[C@H](CO)NC(=O)[C@@H](NC(=O)[C@@H]3CCCN3C(=O)[C@@H]3CCCN3)[C@@H](C)CC)C(C)C)[C@@H](C)O)[C@@H](C)CC)[C@@H](C)CC)C(=O)O)C2=O)CCO[C@H]2CC[C@@]3(C)C(=CC[C@H]4[C@@H]5CC[C@H]([C@H](C)CCCC(C)C)[C@@]5(C)CC[C@@H]43)C2)C1=O)C(=O)O)[C@@H](C)CC (stereo partly drawn) [HRC4]
< 2µm [1]: 13.9 +/- 2.0% | < 5µm [1]: 57.4 +/- 3.9% | VMD [1]: 4.43 +/- 0.26 µm | HRC4 specific antibodies in serum ([2]; 28 days after nebulization): not found | anti-HRC4 antibodies (IgG, IgA and IgM), ELISA, D28 minus day 0 ([2]; animal P2): 0.2158 and 0.159 and 0.1449 | anti-HRC4 antibodies (IgG, IgA and IgM), ELISA, D28 minus day 0 ([2]; animal P3): 0.0684 and 0.0721 and 0.0837 | HRC4-specific IgE in serum [3]: did not reveal presence of any HRC4-specific IgE | Lung eosinophil infiltration ([4]; HRC4-treated animals P1 and P3): no eosinophil infiltration was visible | Lung eosinophil infiltration ([4]; animals that developed MeV infection (incl. HRC4-treated P2)): minimal although noticeable eosinophil infiltration | Histological analysis of lungs ([4]; lungs collected from nebulized animals): did not reveal any abnormalities | Biochemical parameters in plasma [5]: within the physiological levels | Hematological parameters [6]: within the physiological levels | Composition of major PBMC populations in blood [7]: did not reveal any significant changes | Duration of leukopenia (MeV IC323-eGFP [8]; HRC4-treated animal P2): 9-13 days p.i. | Total white blood cell and lymphocyte counts (MeV IC323-eGFP [8]; day 6 following MeV infection, HRC4-treated macaques): remained stable | Total IgE ([9]; animal column 1, day 0 post nebulization): 1.801 | Total IgE ([9]; animal column 1, day 3 post nebulization): 3.381 | Total IgE ([9]; animal column 1, day 6 post nebulization): 4.651 | Total IgE ([9]; animal column 1, day 13 post nebulization): 17.565 | Total IgE ([9]; animal column 1, day 28 post nebulization): 2.916 | Total IgE ([9]; animal column 2, day 0 post nebulization): 1.21 | Total IgE ([9]; animal column 2, day 3 post nebulization): 1.735 | Total IgE ([9]; animal column 2, day 6 post nebulization): 1.034 | Total IgE ([9]; animal column 2, day 13 post nebulization): 2.308 | Total IgE ([9]; animal column 2, day 28 post nebulization): 3.192 | Total IgE ([9]; animal column 3, day 0 post nebulization): 3.017 | Total IgE ([9]; animal column 3, day 3 post nebulization): 5.929 | Total IgE ([9]; animal column 3, day 6 post nebulization): 6.63 | Total IgE ([9]; animal column 3, day 13 post nebulization): 5.888 | Total IgE ([9]; animal column 3, day 28 post nebulization): 1.999 | Duration of viremia (MeV IC323-eGFP [10]; HRC4-treated animal P2 (co-housed with C3)): 6 days | Infection of PBMCs by flow cytometry (MeV IC323-eGFP [10]; HRC4-treated animal P2, day 9 p.i.): low level | Loss of inhibitory activity by nebulization (MeV): did not cause any loss of activity | level at time molar at 96 h ([11]; cynomolgus monkey, serum, inhaled or intranasal, 4 mg/kg, [HRC4] nM, serum of NHP, 96 hours post nebulization, single values): 0.285 nM | HRC4 in urine ([11]; nebulized macaques): absent | [HRC4] ([11]; serum of NHP, 0 hours post nebulization, single values): 0 nM | [HRC4] ([11]; serum of NHP, 168 hours post nebulization, single values): 0 nM | Seroconversion (MeV IC323-eGFP [12]): absence of seroconversion | Abrogation of development of MeV infection (MeV IC323-eGFP [13]; absence of fluorescent rash, PBMC infection, viremia, viral shedding and MeV-specific immune response): two out of three animals | GFP-fluorescent rash (MeV IC323-eGFP [13]; nebulized HRC4 24 h and 6 h before and 24 h after intra-tracheal 10^4 PFU MeV IC323-eGFP, 3 animals): no HRC4-treated animals | Adverse effects (pyrexia, allergic reaction) [14]: no adverse effects | Memory B cell populations (MeV IC323-eGFP [15]): remained stable without any noticeable increase
